Reference: US4103005A, “Novel-enkephalin analogs” (Hoffmann-La Roche Inc., priority 1977, dated 1978)
Where a SMILES comes first, the peptide text is derived from it. [ ]: non-standard residue; d: D form. Thz = O=C(O)[C@@H]1CSCN1

Assays:
male ICR mice [1] = test: Analgesic assay by the tail-flick method in mice; assay type: in vivo; details: for Tail-flick inhibition after intravenous injection: 1.1 to 8.5 mg/kg injected intravenously; for Effect of naloxone pretreatment on inhibition of the tail-flick response: Naloxone HCl 3 mg/kg subcutaneously 5 min before the analog; for Tail-flick inhibition after central application: doses 0.17 to 0.85 μg (D-Met analog) and 0.011 to 0.085 μg (D-Thr analog); for Intracerebroventricular AD50 (median antinociceptive dose) / Intracerebroventricular potency ratio / Intravenous AD50 (median antinociceptive dose) / Intravenous potency ratio: mice; for Intracerebroventricular AD50 (median antinociceptive dose): intracerebroventricular (central) injection; for Intracerebroventricular AD50 (median antinociceptive dose) / Intravenous AD50 (median antinociceptive dose): tail-flick; for Intracerebroventricular potency ratio / Intravenous potency ratio: relative to morphine sulfate = 1, molar basis; for Intravenous AD50 (median antinociceptive dose): intravenous injection via tail vein; for Analgesic activity (summary statement): mouse, in vivo
Protocol: For analgesic assay, male ICR mice weighing 25-30 g were used in all the experiments. The enkephalin analogs dissolved in saline were administered either centrally according to the method described by Haley and McCormick, Br. J. Pharmacol, 12, 12 (1957) or intravenously via the tail vein. The injection volume is 5 μl for central injection and 10 μl per gram body weight for intravenous injection. Naloxone HCl (3 mg/kg) was injected subcutaneously 5 min before the administration of enkephalin analogs. Analgesic activity was assayed by the tail-flick method of D'Amour and Smith, J. Pharmacol, Exp. Ther. 72, 74 (1941).
The percent of analgesia was calculated as [(T1 -T0)/(T2 -T0)] × 100, where a control latency (T0) was obtained from the mean of two latencies determined before drug injection; the test latencies (T1) were determined at various times after injection for each animal; the cutoff time (T2) for the tail-flick was 7 seconds. The median analgesic dose (AD50) and 95% confidence limits were calculated according to the method of Litchfield and Wilcoxon, J. Pharacol. Exp. Ther. 96, 99 (1949). The locomotor activity to the mice was measured with an electronic Fe 40 motility meter (Motron Produkter, Stockholm, Sweden). The detail of the experimental method has been described by Tseng et al., Nature (London) 263, 239 (1976).

[2] = cited from earlier work; for Analgesic activity reported in the literature: in vivo
male ICR mice [3] = details: cited from earlier work

For `CSCC[C@@H](NC(=O)[C@@H](N)Cc1ccc(O)cc1)C(=O)NCC(=O)N[C@@H](Cc1ccccc1)C(=O)N1CSC[C@H]1C(N)=O` [D-Met^2,Thz^5 -Enkephalinamide, H-Tyr-D-Met-Gly-Phe-Thz-NH2] (H-Y[dM]GF[Thz]-NH2), the “Tail-flick inhibition after intravenous injection” value (male ICR mice [1]) was “active in inhibiting the tail-flick response”, the “Effect of naloxone pretreatment on inhibition of the tail-flick response” value (male ICR mice [1]) was “blocked by the pretreatment of naloxone” and the “AD50, times higher than [D-Thr^2,Thz^5 ]-enkephalinamide” value (male ICR mice [1]; applied centrally) was 3.5 times. For the same compound, the “Tail-flick inhibition after central application” value (male ICR mice [1]; applied centrally) was “dose-related increase in intensity and duration of the tail-flick inhibition”, the “Intracerebroventricular AD50 (median antinociceptive dose)” value (shortened to “Intracerebroventricular AD50”) (male ICR mice [1]) was 0.145 nmole/mouse and the Intracerebroventricular potency ratio (male ICR mice [1]) was 7.7. For the same compound, the “Intravenous AD50 (median antinociceptive dose)” value (“Intravenous AD50” for short) (male ICR mice [1]) was 2.71 µmol/kg, the Intravenous potency ratio (male ICR mice [1]) was 4.2 and the “Analgesic activity (summary statement)” value (male ICR mice [1]) was “potent analgesic agents”.
With `C[C@H](O)[C@@H](NC(=O)[C@@H](N)Cc1ccc(O)cc1)C(=O)NCC(=O)N[C@@H](Cc1ccccc1)C(=O)N1CSC[C@H]1C(N)=O` [D-Thr^2,Thz^5 -Enkephalinamide, H-Tyr-D-Thr-Gly-Phe-Thz-NH2] (H-Y[dT]GF[Thz]-NH2) the “Tail-flick inhibition after intravenous injection” value (male ICR mice [1]) was “active in inhibiting the tail-flick response”, the “Effect of naloxone pretreatment on inhibition of the tail-flick response” value (male ICR mice [1]) was “blocked by the pretreatment of naloxone” and the “Potency, times more potent than [D-Met^2, Thz^5 ]-enkephalinamide” value (male ICR mice [1]; applied centrally) was 3.5 times. The “Tail-flick inhibition after central application” value (male ICR mice [1]; applied centrally) was “dose-related increase in intensity and duration of the tail-flick inhibition”, the Duration of analgesia (male ICR mice [1]; intravenous injection) was “longer than that produced by [D-Met^2,Thz^5 ]-enkephalinamide” and the “Intracerebroventricular AD50” value (male ICR mice [1]) was 0.04 nmole/mouse. For the same compound, the Intracerebroventricular potency ratio (male ICR mice [1]) was 27.1, the “Intravenous AD50” value (male ICR mice [1]) was 2.40 µmol/kg and the Intravenous potency ratio (male ICR mice [1]) was 4.8. The “Analgesic activity (summary statement)” value (male ICR mice [1]) was “potent analgesic agents”.
For `CN1CC[C@]23c4c5ccc(O)c4O[C@H]2[C@@H](O)C=C[C@H]3[C@H]1C5.O=S(=O)(O)O` [Morphine sulfate, reference compound], the “Intracerebroventricular AD50” value (male ICR mice [1]) was 1.11 nmole/mouse and the “Intravenous AD50” value (male ICR mice [1]) was 11.4 µmol/kg.
For “D-Ala^2, MePhe^4, Met-O^5 -ol enkephalin”, the “Analgesic activity reported in the literature” value [2] is listed as “most potent analgesic of the group” and the “Oral activity reported in the literature” value ([2]; oral) is listed as “orally active”.
For “D-Ala^2,D-Leu^5 -Enkephalin [reference compound]”, the “Intracerebroventricular AD50” value (male ICR mice [1]) was 0.035 nmole/mouse and the Intracerebroventricular potency ratio (male ICR mice [1]) was 31.7.
In the case of Met-enkephalin [reference compound], the “Intracerebroventricular AD50” value (male ICR mice [1]) was > 174 nmole/mouse, the Intracerebroventricular potency ratio (male ICR mice [1]) was < 0.006 and the “Intravenous AD50” value (male ICR mice [1]) was > 60 µmol/kg. For the same compound, the Intravenous potency ratio (male ICR mice [1]) was < 0.19.
For [D-Met^2, Pro^5 ]-enkephalinamide, the “Analgesic activity reported in the literature” value [2] is listed as “potent analgesic agent”.
In the case of “βc -Endorphin (YGGFMTSEKSQTPLVTLFKNAIIKNAHKKGQ; Beta-endorphin; UniProt P01203 1-31, looked up) [reference compound]”, the “Locomotor activity (previously shown)” value (male ICR mice [3]) is listed as “stimulate locomotor activity weakly or not at all”, the “Intracerebroventricular AD50” value (male ICR mice [1]) is listed as 0.032 nmole/mouse and the Intracerebroventricular potency ratio (male ICR mice [1]) is listed as 34.7. The “Intravenous AD50” value (male ICR mice [1]) was 2.7 µmol/kg and the Intravenous potency ratio (male ICR mice [1]) was 4.2.
